# Experimental data taken from US10076520B2, “Use of tyrosine kinase inhibitor in cancer treatment” (THE REGENTS OF THE UNIVERSITY OF COLORADO, A BODY CORPORATE, priority 2013, dated 2018).
# Experiments:
# PKCδ = experiment: Immunoblot of PKCδ tyrosine phosphorylation in ParC5 cells treated with hydrogen peroxide; format: cell-based, rat; conditions: ParC5 cells pre-treated 30 mins prior to hydrogen peroxide
# ParC5 cells = experiment: Irradiation-induced apoptosis (caspase-3 activity) in ParC5 cells; format: cell-based, rat; conditions: parC5 cells pre-treated 30 mins prior to 10 Gy irradiation; harvested after 18 hrs; p<0.05
# Protocol: Cells were harvested after an additional 18 hrs and casapase 3 activity were measured.
smiles,measurement,setting,value
Cc1ccc(NC(=O)c2ccc(CN3CCN(C)CC3)cc2)cc1Nc1nccc(-c2cccnc2)n1 [imatinib],"phosphorylation of PKCδ at Y64, Y155 and Y311",PKCδ,inhibited phosphorylation of PKCδ at Y155 only
same,apoptosis (caspase 3 activity),ParC5 cells,significant protection from apoptosis
